Measurements as given in patent publication US20100137313A1 (ASTRAZENECA AB, priority 2008, published 2010).

target: S. pneumoniae Topoisomerase IV ATPase (ParE) (Streptococcus pneumoniae serotype 4, UniProt Q59961); assay: S. pneumoniae Topoisomerase IV ATPase inhibition; assay type: biochemical; conditions: values marked * are an average of two or more data points, 13 µM
Method in brief: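 S. pneumoniae ParE (1.25 nM) ATPase with 160 μM ATP and 5 μg/ml sheared DNA in pH 8.0 Tris, Mg2+, DTT, Brij-35; phosphate detected by malachite green/molybdate at 650 nm. Normalised to 2% DMSO (0%) and 20 μM EDTA (100%); IC50 from 10 concentrations.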

Sequence of S. pneumoniae Topoisomerase IV ATPase (ParE) (Q59961 whole entry): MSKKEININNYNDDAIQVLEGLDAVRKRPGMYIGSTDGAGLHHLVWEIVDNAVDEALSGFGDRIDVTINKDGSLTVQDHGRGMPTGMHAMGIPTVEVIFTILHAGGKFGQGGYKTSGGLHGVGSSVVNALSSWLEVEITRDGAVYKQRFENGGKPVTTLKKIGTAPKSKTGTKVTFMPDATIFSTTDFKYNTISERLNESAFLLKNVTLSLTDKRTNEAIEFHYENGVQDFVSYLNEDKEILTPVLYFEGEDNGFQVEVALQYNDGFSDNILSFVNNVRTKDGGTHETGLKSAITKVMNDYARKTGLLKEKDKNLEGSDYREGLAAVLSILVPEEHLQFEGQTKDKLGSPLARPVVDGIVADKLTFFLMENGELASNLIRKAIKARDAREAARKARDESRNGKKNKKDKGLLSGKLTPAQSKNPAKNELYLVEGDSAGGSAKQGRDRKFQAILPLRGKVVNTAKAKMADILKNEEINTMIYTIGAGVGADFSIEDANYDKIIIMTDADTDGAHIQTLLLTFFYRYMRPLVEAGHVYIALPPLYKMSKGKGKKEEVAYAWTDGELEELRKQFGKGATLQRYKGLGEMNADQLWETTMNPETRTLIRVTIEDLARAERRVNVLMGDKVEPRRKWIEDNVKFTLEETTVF

Row | SMILES | % Inh (13 μM) of S. pneumoniae Topoisomerase IV ATPase [%]
1 | O=C(O)/C=C/c1cccc(-c2cnc(Nc3ccc(F)c(Cl)c3)nc2N[C@H]2CCOC2)c1 [Example 958] | 93

same assay, conditions: values marked * are an average of two or more data points, read-out: % Inh (13 μM) of S. pneumoniae Topoisomerase IV ATPase

Row | SMILES | inhibition at 13 µM [%]
2 | COc1cc(Nc2ncc(-c3cccc(/C=C/C(=O)O)c3)c(NCCc3ccncc3)n2)cc(C(F)(F)F)c1 [Example 355, (E)-3-(3-(2-(3-methoxy-5-(trifluoromethyl)phenylamino)-4-(2-(pyridin-4-yl)ethylamino)pyrimidin-5-yl)phenyl) acrylic acid] | 86.6
3 | CS(=O)(=O)CC(=O)c1cncc(-c2cnc(Nc3ccc(F)c(Cl)c3)nc2-n2ccc(C(F)(F)F)n2)c1 [Example 993, 1-(5-(2-(3-chloro-4-fluorophenylamino)-4-(3-(trifluoromethyl)-1H-pyrazol-1-yl)pyrimidin-5-yl)pyridin-3-yl)-2-(methylsulfonyl)ethanone] | 100
4 | COCCCNc1nc(Nc2ccc(F)c(Cl)c2)ncc1-c1nnn[nH]1 [Example 937, N2-(3-chloro-4-fluorophenyl)-N4-(3-methoxypropyl)-5-(1H-tetrazol-5-yl)pyrimidine-2,4-diamine] | 17
5 | O=C(O)c1cc(-c2cnc(Nc3ccc(F)c(Cl)c3)nc2N2CCOCC2)cs1 [Example 483, 4-{2-[(3-chloro-4-fluorophenyl)amino]-4-(morpholin-4-yl)pyrimidin-5-yl}thiophene-2-carboxylic acid] | 66
6 | CCCS(=O)(=O)NC(=O)c1cc(-c2cnc(Nc3cc(OC)cc(OC)c3)nc2-n2nc(C(F)(F)F)cc2C)cnc1OC [Example 817, 5-{2-[(3,5-dimethoxyphenyl)amino]-4-[5-methyl-3-(trifluoromethyl)-1H-pyrazol-1-yl]pyrimidin-5-yl}-2-methoxy-N-(propylsulfonyl)pyridine-3-carboxamide] | 100
7 | COCCCNc1nc(Nc2ccc(F)c(Cl)c2)ncc1-c1cccc(/C=C/C(=O)O)c1 [Example 293, (E)-3-(3-(2-(3-chloro-4-fluorophenylamino)-4-(3-methoxypropylamino)-pyrimidin-5-yl)phenyl)acrylic acid] | 85.3
8 | CN(C)CCCNc1nc(Nc2ccc(F)c(Cl)c2)ncc1-c1ccc(C(=O)NCc2ccccc2)s1 [Example 368, N-benzyl-5-(2-(3-chloro-4-fluorophenylamino)-4-(3-(dimethylamino)propylamino)pyrimidin-5-yl) thiophene-2-carboxamide] | 105
9 | CNc1ncc(-c2cnc(Nc3cc(OC)cc(OC)c3)nc2-n2ccc(C(F)(F)F)n2)cc1C(=O)O [Example 586, 5-(2-(3,5-dimethoxyphenylamino)-4-(3-(trifluoromethyl)-1H-pyrazol-1-yl)pyrimidin-5-yl)-2-(methylamino)nicotinic acid] | 100
10 | CN(C)CCCNc1nc(Nc2ccc(F)c(F)c2)ncc1-c1ccc(C(=O)O)s1 [Example 335, 5-(2-(3,4-difluorophenylamino)-4-(3-(dimethylamino)propylamino)pyrimidin-5-yl)thiophene-2-carboxylic acid] | 76.5
11 | CCOC(=O)c1cncc(-c2cnc(Nc3ccc(F)c(Cl)c3)nc2N2CCCCCC2)c1 [Example 127, ethyl 5-[4-(azepan-1-yl)-2-[(3-chloro-4-fluorophenyl)amino]pyrimidin-5-yl]pyridine-3-carboxylate] | 26.5
12 | CCOC(=O)c1cncc(-c2cnc(Nc3ccc(F)c(Cl)c3)nc2N2CCCC2C)c1 (stereo not drawn) [Example 124, ethyl 5-[2-[(3-chloro-4-fluorophenyl)amino]-4-(2-methylpyrrolidin-1-yl)pyrimidin-5-yl]pyridine-3-carboxylate] | 31.3
13 | COCCCNc1nc(Nc2ccc(F)c(Cl)c2)ncc1-c1cnc(OC)nc1 [Example 78, N^2-(3-chloro-4-fluorophenyl)-2′-methoxy-N^4-(3-methoxypropyl)-5,5′-bipyrimidine-2,4-diamine] | 80.9
14 | COc1cc(Nc2ncc(-c3cnc(OC)c(C#N)c3)c(-n3nc(C(F)(F)F)cc3C)n2)cc(OC)c1 [Example 868, 5-(2-(3,5-dimethoxyphenylamino)-4-(5-methyl-3-(trifluoromethyl)-1H-pyrazol-1-yl)pyrimidin-5-yl)-2-methoxynicotinonitrile] | 6
15 | CCn1cc(-c2cnc(Nc3cc(C)cc(OC)c3)nc2-n2nc(C(F)(F)F)cc2C)cc(C(=O)NS(C)(=O)=O)c1=O [Example 1176, 1-ethyl-5-{2-[(3-methoxy-5-methylphenyl)amino]-4-[5-methyl-3-(trifluoromethyl)-1H-pyrazol-1-yl]pyrimidin-5-yl}-N-(methylsulfonyl)-2-oxo-1,2-dihydropyridine-3-carboxamide] | 100
16 | NC(=O)c1cc(-c2cnc(Nc3ccc(F)c(Cl)c3)nc2-n2ccc(C(F)(F)F)n2)ccn1 [Example 496, 4-{2-[(3-chloro-4-fluorophenyl)amino]-4-[3-(trifluoromethyl)-1H-pyrazol-1-yl]pyrimidin-5-yl}pyridine-2-carboxamide] | 100
17 | Cc1cc(C(F)(F)F)nn1-c1nc(Nc2ccc(F)c(Cl)c2)ncc1-c1cncc(C(N)=O)c1 [Example 924, 5-(2-(3-chloro-4-fluorophenylamino)-4-(5-methyl-3-(trifluoromethyl)-1H-pyrazol-1-yl)pyrimidin-5-yl)nicotinamide] | 97
18 | COc1cc(Nc2ncc(-c3cnc(OC)c(C(=O)NS(=O)(=O)CCCN4CCOCC4)c3)c(-n3ccc(C(F)(F)F)n3)n2)cc(OC)c1 [Example 820, 5-{2-[(3,5-dimethoxyphenyl)amino]-4-[3-(trifluoromethyl)-1H-pyrazol-1-yl]pyrimidin-5-yl}-2-methoxy-N-{[3-(morpholin-4-yl)propyl]sulfonyl}pyridine-3-carboxamide] | 100
19 | CN(C)CCCNc1nc(Nc2ccc(F)c(Cl)c2)ncc1-c1ccc(C(=O)N2CCCC(F)(F)C2)s1 [Example 370, (5-(2-(3-chloro-4-fluorophenylamino)-4-(3-(dimethylamino)propylamino)pyrimidin-5-yl)thiophen-2-yl) (3,3-difluoro-piperidin-1-yl) methanone] | 129
20 | O=C(O)/C=C/c1cccc(-c2cnc(Nc3ccc(F)c(Cl)c3)nc2-n2cc(-c3ccncn3)cn2)c1 [Example 568, (2E)-3-(3-{2-[(3-chloro-4-fluorophenyl)amino]-4-[4-(pyrimidin-4-yl)-1H-pyrazol-1-yl]pyrimidin-5-yl}phenyl)prop-2-enoic acid] | 100
21 | CN1CCN(CCn2cc(C(=O)O)c(=O)c3cc(-c4cnc(Nc5ccc(F)c(Cl)c5)nc4-n4ccc(C(F)(F)F)n4)ccc32)CC1 [Example 1071, 6-(2-(3-Chloro-4-fluorophenylamino)-4-(3-(trifluoromethyl)-1H-pyrazol-1-yl)pyrimidin-5-yl)-1-(2-(4-methylpiperazin-1-yl)ethyl)-4-oxo-1,4-dihydroquinoline-3-carboxylic acid] | 100
22 | O=C(O)c1cncc(-c2cnc(Nc3ccc(F)c(Cl)c3)nc2-n2cc(-c3ccncc3)cn2)c1 [Example 308, 5-{2-[(3-chloro-4-fluorophenyl)amino]-4-[4-(pyridin-4-yl)-1H-pyrazol-1-yl]pyrimidin-5-yl}pyridine-3-carboxylic acid] | 101
23 | CN(C)CCCNc1nc(Nc2ccc(F)c(Cl)c2)ncc1-c1cccc(NS(C)(=O)=O)c1 [Example 3, N-(3-(2-(3-chloro-4-fluorophenylamino)-4-(3-(dimethylamino)propylamino)pyrimidin-5-yl)phenyl)methanesulfonamide] | 56.8
24 | COc1ncc(-c2cnc(Nc3ccc(F)c(Cl)c3)nc2-n2nc(C(F)(F)F)cc2C)cc1C(=O)NS(C)(=O)=O [Example 1025, 5-(2-(3-Chloro-4-fluorophenylamino)-4-(5-methyl-3-(trifluoromethyl)-1H-pyrazol-1-yl)pyrimidin-5-yl)-2-methoxy-N-(methylsulfonyl)nicotinamide] | 98
25 | COc1cc(Nc2ncc(-c3cnc(OC)c(-c4n[nH]c(=O)o4)c3)c(-n3ccc(C(F)(F)F)n3)n2)cc(OC)c1 [Example 807, 5-(5-{2-[(3,5-dimethoxyphenyl)amino]-4-[3-(trifluoromethyl)-1H-pyrazol-1-yl]pyrimidin-5-yl}-2-methoxypyridin-3-yl)-1,3,4-oxadiazol-2(3H)-one] | 100
26 | O=C(O)/C=C/c1cccc(-c2cnc(Nc3ccc4c(c3)OCO4)nc2-n2ccc(C(F)(F)F)n2)c1 [Example 657, (2E)-3-(3-{2-(1,3-benzodioxol-5-ylamino)-4-[3-(trifluoromethyl)-1H-pyrazol-1-yl]pyrimidin-5-yl}phenyl)prop-2-enoic acid] | 100
27 | Nc1ncc(-c2cnc(Nc3ccc(F)c(Cl)c3)nc2-n2ccc(C(F)(F)F)n2)cc1C(=O)O [Example 1073, 2-Amino-5-(2-(3-chloro-4-fluorophenylamino)-4-(3-(trifluoromethyl)-1H-pyrazol-1-yl)pyrimidin-5-yl)nicotinic acid] | 99
28 | O=C(O)c1cncc(-c2cnc(Nc3ccc(F)cc3)nc2N2CCOCC2)c1 [Example 435] | 51
29 | COc1cc(Nc2ncc(-c3cnc(SC)c(C(=O)O)c3)c(-n3nc(C(F)(F)F)cc3C)n2)cc(OC)c1 [Example 854, 5-{2-[(3,5-dimethoxyphenyl)amino]-4-[5-methyl-3-(trifluoromethyl)-1H-pyrazol-1-yl]pyrimidin-5-yl}-2-(methylsulfanyl)pyridine-3-carboxylic acid] | 100
30 | Cc1cc(C(F)(F)F)nn1-c1nc(Nc2ccc(F)c(Cl)c2)ncc1-c1cncc(C(=O)N2CCOCC2)c1 [Example 931, (5-(2-(3-chloro-4-fluorophenylamino)-4-(5-methyl-3-(trifluoromethyl)-1H-pyrazol-1-yl)pyrimidin-5-yl)pyridin-3-yl)(morpholino)methanone] | 100
